Test: Percentage inhibition of N-methyl-D-aspartic acid (NMDA) receptor produced by oocytes

IC50: 51 µM
Compound: CCC(N)[C@@H]1C[C@@]1(C(=O)N(CC)CC)c1ccccc1 (stereo partly drawn) [(1S,2R)-2-(1-Amino-propyl)-1-phenyl-cyclopropanecarboxylic acid diethylamide]
